Measurements published in patent US20050043369A1, “Bactericidal antimicrobial methods and compositions for use in treating gram positive infections” (Protez Pharmaceuticals Inc., priority 2000, published 2005).
Read-outs that look alike come from different tables or passages of the source.

Tests used:
S. aureus SA1199 [1] = test: Checkerboard two-fold broth microdilution, MIC and MBC; type: cell-based, Staphylococcus aureus; conditions: for MBC / MIC: Staphylococcus aureus; for MBC: antibiotic alone; for MBC^b = MBC in the presence of 5 μg/ml of INF 401: plus 5 μg/ml INF 401, unit not given
Experimental: Checkerboard titration was performed with INF 401 and erythromycin to quantitate the effects of the combination on Staphylococcal growth using two-fold serial broth microdilution. After overnight incubation, cells were transferred to fresh medium, as described above, to determine those combinations that were bactericidal to S. aureus. […] Although not determined according to NCCLS recommended procedures ([…]), the inventors considered this the Minimal Bactericidal Concentration (MBC).
The inventors next evaluated whether INF 401 was bactericidal in combination with other protein synthesis inhibitors which are bacteriostatic to S. aureus. Checkerboard studies were performed with two-fold dilutions of each antibiotic in combination with INF 401 using the assay described above in Example 2. After overnight incubation the MIC of each antibiotic was determined by visualization of bacterial growth. […] The MBC of each antibiotic was determined as described in Example 2 in the absence or presence of INF 401.

S. aureus (SA1199) = test: Time kill studies (CFU counts); type: cell-based, Staphylococcus aureus; conditions: antibiotic 1×MIC + 5 μg/ml INF 401
Experimental: FIG. 5A, FIG. 5B and FIG. 5C. […]
The initial inoculum number was determined by plating an appropriate dilution on LB agar plates and determining the number of colony forming units (CFUs). At different time points an aliquot was withdrawn from each tube and cell viability was determined by plating an appropriate dilution and counting CFUs after overnight incubation.

S. pneumoniae = test: Bactericidal activity (MBC) of translational inhibitors with or without INF 401 in S. pneumoniae; type: cell-based, Streptococcus pneumoniae; conditions: antibiotic alone
Excerpt: It would be desirable that an antibiotic potentiator of the present invention is active not only in S. aureus but also in other bacterial pathogens. The inventors have begun studies to investigate whether INF 401 can also potentiate the activity of translational inhibitors in another Gram positive pathogen, S. pneumoniae.

S. aureus SA1199 [2] = test: Checkerboard two-fold broth microdilution, MIC and MBC; type: cell-based, Staphylococcus aureus; conditions: Table 2, plus 10 μg/ml INF 402, unit not given
S. aureus strain SA1199 = test: Screening and titration of potentiators with erythromycin (4 μg/ml), viability read by transfer to fresh medium; type: cell-based, Staphylococcus aureus; conditions: for lowest concentration at which the potentiator is active (titration in the presence of erythromycin): erythromycin 4 μg/ml, S. aureus SA1199; for effect on viability of S. aureus in combination with a bacteriostatic concentration of erythromycin: library screen hit; for Activity (minimal concentration required to kill 99.9% of S. aureus): in the presence of 4 μg/ml erythromycin
Experimental: In an exemplary screening assay, in order to identify a candidate acyl hydrazide, oxy amide or 8-hydroxy quinoline composition as an antibacterial agent potentiator, the S. aureus strain SA1199 may be used. The procedure for screening is as follows: logarithmically growing S. aureus SA1199 are inoculated to a final OD600 of 0.002 into 150 μl of LB medium containing a bacteriostatic concentration of an antimicrobial agent for that strain, for example, erythromycin (4 μg/ml) at four times the Minimal Inhibitory
Concentration (MIC). […] In preliminary studies the inventors determined that under these conditions up to 2000 viable cells were transferred after incubation with erythromycin. As confirmed by broth microdilution, at least a 1000-fold reduction in viability was required to see no visible growth after 20 hours. Acyl hydrazide, oxy amide or 8-hydroxy quinoline antibiotic potentiators may be identified as those compounds that increase the bactericidal effect of the erythromycin.
The macrolide erythromycin was chosen in the initial screen for two reasons: first, its mechanism of inhibition of protein synthesis is well characterized and second, as a macrolide, erythromycin is representative of an expanding class of agents which includes the second most prescribed antibiotic, azithromycin.
In preliminary studies the inventors determined that under these conditions up to 2000 viable cells were transferred after incubation with erythromycin. As confirmed by broth microdilution, at least a 1000-fold reduction in viability was required to see no visible growth after 20 h.
Next the activity of the hit compounds was compared by titration of the compounds in the presence of erythromycin at 4 μg/ml as described above.
(§1) Activity of the compound is depicted as the minimal concentration required to kill 99.9% of S. aureus in the presence of 4 μg/ml erythromycin.

S. aureus SA 29213 = test: 55Fe transport assay (intracellular iron accumulation); type: cell-based, Staphylococcus aureus; conditions: compound at 2 μg/ml; S. aureus SA 29213
Experimental: Next, investigated was whether INF 401 affects intracellular iron accumulation. An ^55Fe transport assay (modified from Sebulsky, 2000) was used to examine the ability of INF 401 to transport iron inside the cell. Briefly, exponentially growing cells were diluted to OD600 0.1 in LB, incubated with ^55FeCl3 for 30 min at 37° C., washed and counted in scintillation fluid using the tritium channel of a scintillation system. […] However, the presence of INF 401 in either the absence or presence of antibiotic led to a dramatic increase in iron accumulation (209,215 and 231,621 DPM, respectively).
as §1

S. aureus ATCC 29213 = test: MBEC assay system, checkerboard: planktonic MIC and biofilm MBEC; type: cell-based, Staphylococcus aureus; conditions: INF 401 at 0.3 μg/ml where in label
Experimental: These studies were performed via the method of Dr. Howard Ceri (University of Calgary), who recently developed a method for the routine determination of the antibiotic susceptibility of biofilms. To date, the inventors have tested the effect of the combination of INF 401 on the ability of either clindamycin or rifampin to eradicate S. aureus biofilms in vitro. S. aureus ATCC 29213 was selected for the study as previous studies of this isolate as a biofilm had been conducted and the isolate served as a quality assurance organism for NCCLS standardization of antibiotic testing. Biofilms were formed as previously described for this organism (Ceri et al., 1999) using the MBEC™ assay system. Checkerboard studies were performed with each antibiotic versus INF 401.

[3] = tested on: S. aureus strain ATTC 29213; test: Characterization of killing by INF 401 plus chloramphenicol (viability, morphology, protein, DNA, metal dependence); type: cell-based, Staphylococcus aureus; conditions: reversed by exogenous Fe3+
Experimental: Time kill study of the effect of NF 401 in combination with chloramphenicol. Exponentially growing cells (S. aureus strain 29213) were diluted to OD600 0.1 in LB supplemented with 20 μg/ml of chloramphenicol (Cm) in the presence or absence of INF 401 (2 μg/ml) and incubated with shaking at 37° C. At indicated time points cells were harvested, washed with LB and plated on LB agar plates. Number of colony forming units (CFUs) was determined after overnight incubation.
Time kill study of the effect of iron on the bactericidal activity of INF 401. S. aureus strain 29213 was grown overnight in iron-limited Staphylococcal Siderophore Detection (SSD) medium (Heinrichs, 1999) supplemented with 2 μM FeCl3, washed with SSD and diluted 1:100 into the fresh medium containing 0, 2 or 50 μm FeCl3. Exponentially growing cells were diluted to OD600 0.01 in the corresponding medium supplemented when indicated with 20 μg/ml of chloramphenicol (Cm) and 2 μg/ml of INF 401. At 0, 1, 2 and 3.5 hours cells were plated in different dilutions to the LB agar plates and number of colony forming units (CFUs) was counted next day.

[4] = SA1199, read-out: MBC^a = MBC in the absence of INF 401, Table 1, S. aureus SA1199, unit inferred

Question: For `CN(C)[C@@H]1C(O)=C(C(N)=O)C(=O)[C@@]2(O)C(O)=C3C(=O)c4c(O)cccc4[C@@](C)(O)[C@H]3C[C@@H]12` [Tetracycline], which MBC (S. aureus SA1199 [1]; [4]) is on record?
Answer: 8 µg/mL

Question: And the MBC (S. aureus SA1199 [1]; SA1199, read-out: MBC^a = MBC in the absence of INF 401, Table 2, S. aureus SA1199, unit inferred)?
Answer: > 8 µg/mL

Question: What about the “MBC^b = MBC in the presence of 5 μg/ml of INF 401” value (“MBC^b = MBC … of INF 401” below) (S. aureus SA1199 [1]; Table 1, S. aureus SA1199) of the same molecule?
Answer: 0.25

Question: What about the “reduction in cell viability, antibiotic in combination with INF 401” value (S. aureus (SA1199)) of the same molecule?
Answer: 3 log10

Question: And the “bactericidal concentration in the absence of INF 401 as multiple of MIC” value (S. pneumoniae)?
Answer: 4 ×MIC

Question: What about the “MBC^b = MBC in the presence of 10 μg/ml of INF 402” value (S. aureus SA1199 [2]) of the same molecule?
Answer: 2

Question: For `Cc1cc(C)c2ccc(NN)nc2c1O` [INF 406], which “lowest concentration at which the potentiator is active (titration in the presence of erythromycin)” value (S. aureus strain SA1199) is on record?
Answer: 0.6 µg/mL

Question: And the “effect on viability of S. aureus in combination with a bacteriostatic concentration of erythromycin” value (S. aureus strain SA1199)?
Answer: reduced the viability

Question: Which results are given for `CCOc1cccc(/C=N/NC(=O)Cc2ccc(C)cc2)c1O` [drawing 37]?
Answer: Activity (minimal concentration required to kill 99.9% of S. aureus) (S. aureus strain SA1199): >10 µg/mL; ^55Fe Accm. (S. aureus SA 29213): 1,200 DPM

Question: `Cc1cccc(CNC(=O)N/N=C/c2c(O)ccc3ccccc23)c1` was tested. Which “Activity (minimal concentration required to kill 99.9% of S. aureus)” value (S. aureus strain SA1199) did it give?
Answer: >10 µg/mL

Question: And the “^55Fe Accm.” value (S. aureus SA 29213)?
Answer: 1,500 DPM

Question: How did the MBC (S. aureus SA1199 [1]; Table 1, S. aureus SA1199, unit inferred, read-out: MBC^a = MBC in the absence of INF 401) turn out when `[H]/N=C(\N/C(=N/[H])NCCCCCCNC(=N)NC(=N)Nc1ccc(Cl)cc1)Nc1ccc(Cl)cc1` [Chlorhexidine] was run?
Answer: 4 µg/mL

Question: What about the MIC (S. aureus SA1199 [1]; Table 1, S. aureus SA1199, unit inferred, read-out: MIC) of the same molecule?
Answer: 1 µg/mL

Question: And the “MBC^b = MBC … of INF 401” value (S. aureus SA1199 [1]; Table 1, S. aureus SA1199)?
Answer: 1

Question: `CO[C@H]1/C=C/O[C@@]2(C)Oc3c(C)c(O)c4c(O)c(c(/C=N/N5CCN(C)CC5)c(O)c4c3C2=O)NC(=O)/C(C)=C\C=C\[C@H](C)[C@H](O)[C@@H](C)[C@@H](O)[C@@H](C)[C@H](OC(C)=O)[C@@H]1C` [Rifampin] was tested. Which MIC (S. aureus SA1199 [1]; SA1199) did it give?
Answer: 0.009 µg/mL

Question: And the MBC (S. aureus SA1199 [1]; [4])?
Answer: 0.06 µg/mL

Question: What about the “MBC^b = MBC … of INF 401” value (S. aureus SA1199 [1]; Table 1, S. aureus SA1199) of the same molecule?
Answer: 0.0019

Question: And the MIC (S. aureus ATCC 29213; Staphylococcus aureus, ATCC29213, planktonic population)?
Answer: 0.0075 µg/mL

Question: And the MBEC (S. aureus ATCC 29213; biofilm population)?
Answer: >2 µg/mL

Question: How did the “lowest concentration at which the potentiator is active (titration in the presence of erythromycin)” value (S. aureus strain SA1199) turn out when `COc1ccc(C(=O)N(O)c2ccccc2)cc1` [INF 402] was run?
Answer: 1.25 to 2.5 µg/mL

Question: What about the “effect on viability of S. aureus in combination with a bacteriostatic concentration of erythromycin” value (S. aureus strain SA1199) of the same molecule?
Answer: reduced the viability

Question: `O=C(O)C(NCCNC(C(=O)O)c1ccccc1O)c1ccccc1O` (stereo not shown) [EDDHA] was tested. Which “effect of iron chelator on killing by INF 401” value [3] did it give?
Answer: completely ablate killing

Question: `Cc1ccc(CNC(=O)N/N=C/c2c(O)ccc3ccccc23)cc1` was tested. Which “Activity (minimal concentration required to kill 99.9% of S. aureus)” value (S. aureus strain SA1199) did it give?
Answer: 1.25 µg/mL

Question: What about the “^55Fe Accm.” value (S. aureus SA 29213) of the same molecule?
Answer: 9,100 DPM
